Like-named read-outs stand apart in the source and are kept apart here.
Target: T1, α1A-ARS (Homo sapiens, UniProt P35348)
T1 sequence (P35348 1-466): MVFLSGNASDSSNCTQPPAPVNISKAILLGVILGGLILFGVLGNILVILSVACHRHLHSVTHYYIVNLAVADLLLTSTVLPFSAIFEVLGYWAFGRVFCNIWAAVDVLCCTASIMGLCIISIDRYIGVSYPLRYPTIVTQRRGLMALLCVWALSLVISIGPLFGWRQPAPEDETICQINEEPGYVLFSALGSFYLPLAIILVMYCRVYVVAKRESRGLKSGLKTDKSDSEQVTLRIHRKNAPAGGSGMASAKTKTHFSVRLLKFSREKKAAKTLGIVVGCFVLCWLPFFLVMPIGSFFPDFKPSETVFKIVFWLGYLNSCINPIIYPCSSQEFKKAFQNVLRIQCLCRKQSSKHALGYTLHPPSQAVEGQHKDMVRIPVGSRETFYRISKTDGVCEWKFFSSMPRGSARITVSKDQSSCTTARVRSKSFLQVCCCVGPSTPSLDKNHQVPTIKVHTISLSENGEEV
Assay: Calcium flux assay (Calcium 6 dye) in cells expressing an α1-AR
Assay type: cell-based
Conditions: for Emax: read-out: Average Emax; for EC50: mean of at least three experiments, read-out: Average PEC50
From the text: Calcium flux experimental design: alpha-1 adrenergic receptors (α1-ARs) couple to Gq proteins, which results in downstream activation of phospholipase C and release of calcium from intracellular stores. Intracellular calcium increase upon α1-AR activation can be detected by Calcium 6 dye.
Cell preparation: cells expressing an α1-AR were washed in warmed phosphate-buffered saline to remove medium and harvested using versene (Caisson Labs, catalog #EDL01).
Media was removed from cells by tapping plates upside-down on absorbent wipes, followed by 15 second upside-down 50×g centrifugation, again on absorbent wipes. 12 μL cell dye solution was added to cells using a reagent dispenser (Integra viaFILL) and cells were incubated for 90 minutes at 37° C., 5% CO2.
Compound preparation: candidate alpha-adrenergic compounds, dissolved to 10 mM in DMSO, were diluted in_assay buffer (HBSS/H-EPES containing 2 mM CaCl2 and 2 mM probenecid sodium salt). […] On all assay plates, vehicle (DMSO) and positive control (10 μM epinephrine) conditions were included on the plate, as well as a dose-response curve of epinephrine. […] 384 well compound plates were centrifuged briefly at 250×g, sealed (Axygen PCR-SP) and incubated at 37° C. until the 90 minute cell dye incubation was complete.
Calcium 6 stained cells and 384 well compound plates were loaded onto the Flexstation and incubated on the machine for 5 minutes before initiating the assay.
For each assay well, baseline Calcium 6 fluorescence was detected for 18 seconds prior to 12 μL compound addition at 12 μL per second. Changes in Calcium 6 fluorescence were detected for a further 22 seconds, for a total read time of 40 seconds. All detection was performed with medium gain sensitivity, bottom read, with 6 flashes per read.
Data analysis: for calcium flux, analysis of maximum change from baseline over the 40-second read time was determined using Softmax Pro and data was exported as raw text files. Potency estimates (EC50) were derived from dose response curves (maximum change from baseline versus the log concentration of test compound) fit by four-parameter nonlinear regression using Graphpad Prism. Efficacy was determined by comparing the magnitude of the test compound signal window (fitted curve max−min) with the signal window of the full agonist control, epinephrine. […] All experiments were repeated a minimum of three times, with the average (mean) potency and maximum effect relative to the within-plate full agonist dose-response comparator reported.

[1] = calcium flux, α1A-AR, maximum effect relative to full agonist epinephrine

Structure (SMILES) | Emax [1] | EC50 (calcium flux, α1A-AR) | Emax
Cc1c(CC2=NCCN2)cccc1-c1ncco1 [Compound 5] | 21 to 60% | 10 to 977 nM | 
Cc1c(CC2=NCCN2)cccc1-c1cn[nH]c1 [Compound 6] | 21 to 60% | 10 to 977 nM | 
Cc1csc(-c2cccc(CC3=NCCN3)c2C)n1 [Compound 8] | < 20% | > 1000 nM | 
Cc1c(CC2=NCCN2)ccc(Cl)c1-c1cn[nH]c1 [Compound 17] | < 20% | > 1000 nM | 
Cc1c(CC2=NCCN2)cccc1-c1cc[nH]n1 [Compound 20] | 21 to 60% | 10 to 977 nM | 
Cc1c(CC2=NCCN2)cccc1-n1cccn1 [Compound 22] | 21 to 60% | 10 to 977 nM | 
Cc1csc(-c2cc(Cl)ccc2CC2=NCCN2)n1 [Compound 24] | 21 to 60% | 10 to 977 nM | 
Cc1c(CC2=NCCN2)cccc1-c1cccs1 [Compound 26] | < 20% | 10 to 977 nM | 
Clc1ccc(CC2=NCCN2)c(-c2cccs2)c1 [Compound 28] | > 61% | < 9.77 nM | 
Cc1c(CC2=NCCN2)cccc1-c1ccco1 [Compound 29] | 21 to 60% | 10 to 977 nM | 
Cc1c(CC2=NCCN2)ccc(Cl)c1-c1nccs1 [Compound 36] | < 20% | > 1000 nM | 
Cc1cc(Cl)ccc1CC1=NCCN1 [Compound 38] |  | 10 to 977 nM | 21 to 60%
FC(F)(F)c1cc(Cl)ccc1CC1=NCCN1 [Compound 39] |  | 10 to 977 nM | > 61%
COc1cc(Cl)ccc1CC1=NCCN1 [Compound 40] |  | 10 to 977 nM | 21 to 60%
CC(C)(C)c1cc(Cl)ccc1CC1=NCCN1 [Compound 41] |  | > 1000 nM | < 20%
Cc1oc2ccc(CC3=NCCN3)cc2c1C [Compound 42] |  | > 1000 nM | < 20%
Cc1oc2cc(CC3=NCCN3)ccc2c1C [Compound 43] |  | 10 to 977 nM | 21 to 60%
Cc1c(CC2=NCCN2)cc(C)c2occc12 [Compound 44] |  | 10 to 977 nM | 21 to 60%
Cc1oc2c(CC3=NCCN3)cccc2c1C [Compound 45] |  | 10 to 977 nM | > 61%
c1cc2c(cc1CC1=NCCN1)NCC21CC1 [Compound 46] | 21 to 60% | 10 to 977 nM | 
COc1c(CC2=NCCN2)ccc2occc12 [Compound 47] |  | 10 to 977 nM | 21 to 60%
c1cc(CC2=NCCN2)c2occc2c1 [Compound 48] |  | 10 to 977 nM | > 61%
c1cc(CC2=NCCN2)c2[nH]ccc2c1 [Compound 50] |  | 10 to 977 nM | 21 to 60%

Structure (SMILES) | Emax [1] | EC50 (calcium flux, α1A-AR) | Emax
c1cc(CC2=NCCN2)c2[nH]ncc2c1 [Compound 51] |  | > 1000 nM | 21 to 60%
Clc1c(CC2=NCCN2)ccc2occc12 [Compound 52] |  | 10 to 977 nM | < 20%
Clc1cc2occc2cc1CC1=NCCN1 [Compound 53] |  | < 9.77 nM | > 61%
Cc1c(CC2=NCCN2)ccc2occc12 [Compound 54] |  | 10 to 977 nM | 21 to 60%
Cc1c(CC2=NCCN2)ccc2[nH]ncc12 [Compound 55] |  | 10 to 977 nM | 21 to 60%
Cc1c(CC2=NCCN2)cc(Cl)c2occc12 [Compound 56] |  | 10 to 977 nM | 21 to 60%
Cc1c(CC2=NCCN2)ccc2c1CCO2 [Compound 58] |  | 10 to 977 nM | 21 to 60%
Cc1cc2cccc(CC3=NCCN3)c2o1 [Compound 59] |  | 10 to 977 nM | > 61%
Cc1coc2c(CC3=NCCN3)cccc12 [Compound 60] |  | 10 to 977 nM | 21 to 60%
Cc1c(CC2=NCCN2)ccc2cc[nH]c12 [Compound 61] |  | 10 to 977 nM | < 20%
Clc1cn(C2CC2)c2cc(CC3=NCCN3)ccc12 [Compound 63] |  | 10 to 977 nM | 21 to 60%
CC(C)(C)c1ccccc1CC1=NCCN1 [Compound 64] |  | > 1000 nM | < 20%
Clc1ccc(CC2=NCCN2)c(C2CC2)c1 [Compound 65] |  | 10 to 977 nM | > 61%
Cc1cc(C(F)(F)F)ccc1CC1=NCCN1 [Compound 66] |  | 10 to 977 nM | 21 to 60%
CCc1cc(Cl)ccc1CC1=NCCN1 [Compound 67] |  | 10 to 977 nM | > 61%
FC(F)(F)c1ccc(CC2=NCCN2)c(N2CCOCC2)c1 [Compound 68] | < 20% | > 1000 nM | 
FC(F)(F)c1ccc(CC2=NCCN2)c(N2CCCCC2)c1 [Compound 69] | 21 to 60% | 10 to 977 nM | 
Fc1ccc(CC2=NCCN2)c(C2CC2)c1 [Compound 70] |  | 10 to 977 nM | 21 to 60%
CCc1cc(F)ccc1CC1=NCCN1 [Compound 71] |  | 10 to 977 nM | 21 to 60%
Fc1ccc(CC2=NCCN2)c(N2CCOCC2)c1 [Compound 72] | < 20% | > 1000 nM | 
Cc1cc(F)ccc1CC1=NCCN1 [Compound 73] |  | 10 to 977 nM | 21 to 60%
Clc1ccc(CC2=NCCN2)c(-c2ccccc2)c1 [Compound 74] | > 61% | 10 to 977 nM | 

The next lines start with results.

Emax [1] | EC50 (calcium flux, α1A-AR) | Structure (SMILES) | Emax
< 20% | > 1000 nM | Cn1nccc1-c1ccc(CC2=NCCN2)cc1Cl [Compound 1] | 
< 20% | > 1000 nM | Clc1cc(CC2=NCCN2)ccc1-c1ccn[nH]1 [Compound 2] | 
< 20% | > 1000 nM | Clc1cc(CC2=NCCN2)ccc1-c1ncco1 [Compound 3] | 
< 20% | > 1000 nM | Cc1csc(-c2ccc(CC3=NCCN3)cc2Cl)n1 [Compound 4] | 
21 to 60% | 10 to 977 nM | Cc1c(CC2=NCCN2)cccc1-c1ccnn1C [Compound 7] | 
21 to 60% | 10 to 977 nM | Clc1ccc(CC2=NCCN2)cc1-c1ncco1 [Compound 10] | 
< 20% | > 1000 nM | Cn1nccc1-c1cc(CC2=NCCN2)ccc1Cl [Compound 11] | 
< 20% | 10 to 977 nM | Cc1c(CC2=NCCN2)ccc(-c2ncco2)c1Cl [Compound 12] | 
> 61% | 10 to 977 nM | Clc1ccc(CC2=NCCN2)c(-c2ncco2)c1 [Compound 13] | 
21 to 60% | 10 to 977 nM | Cc1c(CC2=NCCN2)ccc(Cl)c1-c1ncco1 [Compound 14] | 
< 20% | > 1000 nM | Cc1c(CC2=NCCN2)ccc(Cl)c1-c1ccnn1C [Compound 15] | 
21 to 60% | 10 to 977 nM | Cn1nccc1-c1cc(Cl)ccc1CC1=NCCN1 [Compound 16] | 
> 61% | 10 to 977 nM | Clc1ccc(CC2=NCCN2)c(-c2ccccn2)c1 [Compound 18] | 
> 61% | > 1000 nM | Clc1ccc(CC2=NCCN2)c(-c2cccnc2)c1 [Compound 19] | 
> 61% | 10 to 977 nM | Clc1ccc(CC2=NCCN2)c(-n2cccn2)c1 [Compound 21] | 
21 to 60% | 10 to 977 nM | Clc1ccc(CC2=NCCN2)cc1-n1cccn1 [Compound 23] | 
> 61% | < 9.77 nM | Clc1ccc(CC2=NCCN2)c(-c2nccs2)c1 [Compound 25] | 
21 to 60% | 10 to 977 nM | Clc1ccc(CC2=NCCN2)c(-c2cnccn2)c1 [Compound 27] | 
> 61% | < 9.77 nM | Clc1ccc(CC2=NCCN2)c(-c2ccco2)c1 [Compound 30] | 
> 61% | 10 to 977 nM | Clc1ccc(CC2=NCCN2)c(-c2ncccn2)c1 [Compound 32] | 
< 20% | > 1000 nM | Clc1ccc(CC2=NCCN2)c(-c2cccnn2)c1 [Compound 33] | 
21 to 60% | > 1000 nM | Clc1ccc(CC2=NCCN2)c(-c2ccncn2)c1 [Compound 34] | 
> 61% | < 9.77 nM | Cc1ccoc1-c1cc(Cl)ccc1CC1=NCCN1 [Compound 35] | 
21 to 60% | 10 to 977 nM | Cc1cc(-c2cc(Cl)ccc2CC2=NCCN2)sn1 [Compound 37] | 
< 20% | > 1000 nM | Clc1cn(-c2cn[nH]c2)c2cc(CC3=NCCN3)ccc12 [Compound 62] | 

From patent US20230312524A1, “ALPHA1A-ADRENERGIC RECEPTOR AGONISTS AND METHODS OF USE” (CuraSen Therapeutics, Inc., priority 2020, published 2023)
